According to patent EP4818172A1, “ASCORBIC ACID DERIVATIVES AND COSMETIC CONTAINING SAME” (Seiwa Kasei Co., Ltd., priority 2023, dated 2025):

Key:
[1] = Stability test -1: residual rate of 1% aqueous solutions at pH 3 to 9 on storage; type: physicochemical; settings: 1% aqueous solution
[2] = tested on: Normal human dermal fibroblasts; assay: Collagen production promoting effect (ELISA of free collagen in supernatant); type: cell-based; settings: sample at 10 mM or less, cultured 48 hours, % of control group (100%), N=3
Description: Normal human dermal fibroblasts were prepared in D-MEM containing 5% (v/v) fetal bovine serum to a cell density of 2.5 × 10^4 cell s /well, and then pre-incubated for 24 hours on a 96-well plate. After removing the medium, samples prepared to a predetermined concentration in D-MEM containing 5% (v/v) fetal bovine serum were added to each well and cultured for 48 hours. After the culture was completed, the amount of free collagen in the supernatant was quantified by ELISA. Measurements were performed in triplicate (N=3).
The amount of collagen produced when the sample was measured at a concentration of 10 mM or less was compared with that of the control group, and the results (% values when the control group was set to 100%) are shown in Table 17 based on the following criteria. • <100%: ± • 100-140%: + • 140%<: ++ [Table 17]

[3] = Stability test -1: odor and coloration scored by 10 panelists; type: physicochemical; settings: Test Example 1, aqueous solution, total score of 10 panelists
Description: (§1) For each of the samples of Synthesis Examples 1 to 6, 1% aqueous solutions were adjusted to pH 3, 5, 7, 8, and 9 with a dilute potassium hydroxide aqueous solution, and then placed in 50 mL screw tubes and • 2: Color changes compared to immediately after preparation. • 1: Strongly colored compared to immediately after preparation. Based on the results of the above evaluation, the following classification was made: • ○: Total score of 10 panelists is 25 or more • △: Total score of 10 panelists is 16-24 • ×: The total score of 10 panelists is 15 or less [Table 10]

[4] = tested on: Normal human dermal fibroblasts (NHDF); assay: Hyaluronic acid production promoting effect (ELISA of supernatant); type: cell-based; settings: sample at 10 mM or less in serum-free D-MEM, cultured 48 hours, % of control group (100%), N=3
Description: Normal human dermal fibroblasts (NHDF) were prepared in D-MEM containing 5% (v/v) fetal bovine serum to a cell density of 2.5 × 10^4 cells/well, and then pre-incubated on a 96-well plate for 24 hours. After removing the medium, samples prepared in serum-free D-MEM were added to each well and cultured for 48 hours. After the culture was completed, the amount of hyaluronic acid in the supernatant was quantified by ELISA. Measurements were performed in triplicate (N=3).
The amount of hyaluronic acid produced when the sample was measured at a concentration of 10 mM or less was compared with that of the control group, and the results (% values when the control group is set to 100%) are shown in Tables 18 to 20 based on the following criteria. • <100%: ± • 100-120%: + • 120%<: ++ [Table 18]

[5] = Stability test -2: odor and coloration of cream stored at 50°C; type: physicochemical; settings: Test Example 2, cream stored at 50°C, total score of 10 panelists
Description: as §1
(§2) For each of the samples of Synthesis Examples 9 to 32, (a) and (b) shown in Table 12 were each heated and mixed. After cooling, (c) shown in Table 12 was added to prepare a cream with a pH of 7 or 9. The sample was stored at 50°C for 4 weeks, and the residual rate was determined in the same manner as in Test Example 1 and evaluated according to the criteria described below. The odor and coloration were also evaluated according to the same method and criteria as in Test Example 1. The results regarding the residual rate are shown in Tables 13 and 14, and the results regarding the odor and coloration are shown in Tables 15 and 16.

[6] = Stability test -2: residual rate in cream of pH 7 or 9 stored at 50°C; type: physicochemical; settings: cream with 4.0 W/W% derivative
Description: as §2
• ⊚: 95% or more • ○: 85% or more, less than 95% • ×: Less than 85% [Table 12]

Row | Residual Rate After 2 weeks ([1]; pH3, stored at 50°C) | Residual Rate After 4 weeks ([1]; pH3, stored at 50°C) | Residual Rate After 2 weeks ([1]; pH5, stored at 50°C) | Residual Rate After 4 weeks ([1]; pH5, stored at 50°C) | Residual Rate After 2 weeks ([1]; pH7, stored at 50°C) | Residual Rate After 4 weeks ([1]; pH7, stored at 50°C) | Residual Rate After 2 weeks ([1]; pH8, stored at 50°C) | Residual Rate After 4 weeks ([1]; pH8, stored at 50°C) | Residual Rate After 2 weeks ([1]; pH9, stored at 50°C) | Residual Rate After 4 weeks ([1]; pH9, stored at 50°C) | SMILES | Collagen production-promoting effect [2] | Coloration After 2 weeks [3] | Odor After 2 weeks [3] | Coloration After 4 weeks [3] | Odor After 4 weeks [3] | Hyaluronic acid production-promoting effect [4] | other results
1 | ⊚ | ⊚ | ⊚ | ⊚ | ○ | Δ | Δ | × | × | × | O=C1OC(C(O)CO)C2=C1OCCO2 (centres unmarked) [synthesis example 1, 2,3-O-(1,2-ethanediyl) ascorbic acid] | + (100-140%) | ○ (Total score of 10 panelists is 25 or more) | ○ (Total score of 10 panelists is 25 or more) | Δ | ○ (Total score of 10 panelists is 25 or more) | + (100-120%) | –
2 | ⊚ | ⊚ | ⊚ | ⊚ | ⊚ | ⊚ | ⊚ | ○ | ○ | Δ | O=C1OC(C(O)CO)C2=C1OCCCO2 (centres unmarked) [synthesis example 2, 2,3-O-(1,3-propanediyl) ascorbic acid] | ++ (140%<) | ○ (Total score of 10 panelists is 25 or more) | ○ (Total score of 10 panelists is 25 or more) | ○ (Total score of 10 panelists is 25 or more) | Δ | ++ (120%<) | –
3 | ⊚ | ⊚ | ⊚ | ⊚ | ○ | ○ | ○ | Δ | ○ | Δ | O=C1OC(C(O)CO)C2=C1OCC1(COC1)CO2 (centres unmarked) [synthesis example 6, 2,3-O-(3,3-dimethyleneoxetane) ascorbic acid] | ++ (140%<) | ○ (Total score of 10 panelists is 25 or more) | ○ (Total score of 10 panelists is 25 or more) | ○ (Total score of 10 panelists is 25 or more) | ○ (Total score of 10 panelists is 25 or more) | ++ (120%<) | –
4 | ⊚ | ⊚ | ⊚ | ⊚ | ○ | Δ | ○ | Δ | ○ | Δ | O=C1OC(C(O)CO)C2=C1OC(CO)CO2 (centres unmarked) [synthesis example 5, 2,3-O-(1-hydroxymethyl-1,2-ethanediyl) ascorbic acid] | + (100-140%) | ○ (Total score of 10 panelists is 25 or more) | ○ (Total score of 10 panelists is 25 or more) | ○ (Total score of 10 panelists is 25 or more) | ○ (Total score of 10 panelists is 25 or more) | + (100-120%) | –
5 | ⊚ | ⊚ | ⊚ | ⊚ | ⊚ | ⊚ | ⊚ | ○ | ○ | Δ | O=C1OC(C(O)CO)C2=C1OCCCCO2 (centres unmarked) [synthesis example 3, 2,3-O-(1,4-butanediyl) ascorbic acid] | + (100-140%) | ○ (Total score of 10 panelists is 25 or more) | ○ (Total score of 10 panelists is 25 or more) | ○ (Total score of 10 panelists is 25 or more) | ○ (Total score of 10 panelists is 25 or more) | + (100-120%) | –
6 | ⊚ | ⊚ | ⊚ | ⊚ | ○ | ○ | ○ | Δ | ○ | Δ | O=C1OC(C(O)CO)C2=C1OCC(O)CO2 (centres unmarked) [synthesis example 4, 2,3-O-(2-hydroxypropane-1,3-diyl) ascorbic acid] | + (100-140%) | ○ (Total score of 10 panelists is 25 or more) | ○ (Total score of 10 panelists is 25 or more) | ○ (Total score of 10 panelists is 25 or more) | ○ (Total score of 10 panelists is 25 or more) | ++ (120%<) | –
7 | – | – | – | – | – | – | – | – | – | – | CC(C)CCCCCCCCCCCCCCC(=O)OCC(OC(=O)CCCCCCCCCCCCCCC(C)C)C1OC(=O)C2=C1OCCCO2 (centres unmarked) [synthesis example 29, 5,6-O-diisostearoyl-2,3-O-(1,3-propanediyl) ascorbic acid] | ++ (140%<) | – | – | – | – | + (100-120%) | Coloration After 2 weeks [5]: ○ (Total score of 10 panelists is 25 or more); Odor After 2 weeks [5]: ○ (Total score of 10 panelists is 25 or more); Coloration After 4 weeks [5]: ○ (Total score of 10 panelists is 25 or more); Odor After 4 weeks [5]: Δ; Residual Rate After 2 weeks ([6]; pH7, stored at 50°C): ⊚ (95% or more); Residual Rate After 4 weeks ([6]; pH7, stored at 50°C): ⊚ (95% or more); Residual Rate After 2 weeks ([6]; pH9, stored at 50°C): ⊚ (95% or more); Residual Rate After 4 weeks ([6]; pH9, stored at 50°C): ⊚ (95% or more)
8 | – | – | – | – | – | – | – | – | – | – | CCCC(=O)OCC(OC(=O)CCC)C1OC(=O)C2=C1OCCCO2 (centres unmarked) [synthesis example 21, 5,6-O-dibutanoyl-2,3-O-(1,3-propanediyl) ascorbic acid] | ++ (140%<) | – | – | – | – | ++ (120%<) | Coloration After 2 weeks [5]: ○ (Total score of 10 panelists is 25 or more); Odor After 2 weeks [5]: ○ (Total score of 10 panelists is 25 or more); Coloration After 4 weeks [5]: ○ (Total score of 10 panelists is 25 or more); Odor After 4 weeks [5]: Δ; Residual Rate After 2 weeks ([6]; pH7, stored at 50°C): ⊚ (95% or more); Residual Rate After 4 weeks ([6]; pH7, stored at 50°C): ⊚ (95% or more); Residual Rate After 2 weeks ([6]; pH9, stored at 50°C): ⊚ (95% or more); Residual Rate After 4 weeks ([6]; pH9, stored at 50°C): ⊚ (95% or more)
